Results taken from ChEMBL document CHEMBL1201862, “PubChem BioAssay data set” (2004).
The source made the active and inactive calls.

Tests used:
[1] = Luminescence Cell-Based Dose Response to Identify Activators of 5'UTR Stem-Loop Driven Prion Protein mRNA Translation in H4-C Neuroglioblastoma Cells. [Related pubchem assays: 1829 (Project Summary), 1814 (Primary HTS)]; type: functional
[2] = Luminescence Cell-Based Dose Response HTS to Identify Activators of Luciferase Translation or Activity in H4 […] Cells. [Related pubchem assays: 1829 (Project Summary), 1814 (Primary HTS)]; type: functional
[3] = test system: H4; test: Luminescence Cell-Based Dose Response HTS to Identify Activators of 5'UTR Stem-Loop Driven Prion Protein mRNA Translation in H4 Neuroglioblastoma Cells. [Related pubchem assays: 1829 (Project Summary), 1814 (Primary HTS)]; type: functional; settings: Homo sapiens
[4] = Luminescence Cell-Based Dose Confirmation to Identify Activators of 5'UTR Stem-Loop Driven Alpha-Synuclein mRNA Translation in H4 Neuroglioblastoma Cells. [Related pubchem assays: 1829 (Project Summary), 1814 (Primary HTS)]; type: functional
[5] = Luminescence Cell-Based Dose Response to Identify Activators of Luciferase Translation or Activity in H4-C Neuroglioblastoma Cells. [Related pubchem assays: 1829 (Project Summary), 1814 (Primary HTS)]; type: functional
[6] = biological target: T1, Zinc finger protein mex-5 (Caenorhabditis elegans, UniProt Q9XUB2); test: MEX-5/TCR-2 RNA interaction inhibitors, dose response, biochemical, C. elegans, fluorescence polarization (AID 1960)
T1 sequence (Q9XUB2 whole entry): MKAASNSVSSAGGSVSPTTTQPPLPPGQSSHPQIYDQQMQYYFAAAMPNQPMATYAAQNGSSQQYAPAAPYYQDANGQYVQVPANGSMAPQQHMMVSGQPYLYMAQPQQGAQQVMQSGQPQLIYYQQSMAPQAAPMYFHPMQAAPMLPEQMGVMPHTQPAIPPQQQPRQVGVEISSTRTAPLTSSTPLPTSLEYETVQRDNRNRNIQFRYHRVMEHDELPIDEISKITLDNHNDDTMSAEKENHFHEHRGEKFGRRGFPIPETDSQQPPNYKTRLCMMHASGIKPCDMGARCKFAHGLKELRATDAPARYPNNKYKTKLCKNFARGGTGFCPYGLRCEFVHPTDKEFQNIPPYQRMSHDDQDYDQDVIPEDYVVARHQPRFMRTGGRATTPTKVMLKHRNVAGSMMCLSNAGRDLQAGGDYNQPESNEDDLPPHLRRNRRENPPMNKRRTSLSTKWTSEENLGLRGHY

[7] = biological target: Genome polyprotein (dengue virus type 2, UniProt P29990); test: Dengue-2 NS5 methyltransferase inhibitors, primary screen, biochemical, confirmation dose response (AID 588689); type: functional
Genome polyprotein, sequence (P29990 2492-3391 limits assumed): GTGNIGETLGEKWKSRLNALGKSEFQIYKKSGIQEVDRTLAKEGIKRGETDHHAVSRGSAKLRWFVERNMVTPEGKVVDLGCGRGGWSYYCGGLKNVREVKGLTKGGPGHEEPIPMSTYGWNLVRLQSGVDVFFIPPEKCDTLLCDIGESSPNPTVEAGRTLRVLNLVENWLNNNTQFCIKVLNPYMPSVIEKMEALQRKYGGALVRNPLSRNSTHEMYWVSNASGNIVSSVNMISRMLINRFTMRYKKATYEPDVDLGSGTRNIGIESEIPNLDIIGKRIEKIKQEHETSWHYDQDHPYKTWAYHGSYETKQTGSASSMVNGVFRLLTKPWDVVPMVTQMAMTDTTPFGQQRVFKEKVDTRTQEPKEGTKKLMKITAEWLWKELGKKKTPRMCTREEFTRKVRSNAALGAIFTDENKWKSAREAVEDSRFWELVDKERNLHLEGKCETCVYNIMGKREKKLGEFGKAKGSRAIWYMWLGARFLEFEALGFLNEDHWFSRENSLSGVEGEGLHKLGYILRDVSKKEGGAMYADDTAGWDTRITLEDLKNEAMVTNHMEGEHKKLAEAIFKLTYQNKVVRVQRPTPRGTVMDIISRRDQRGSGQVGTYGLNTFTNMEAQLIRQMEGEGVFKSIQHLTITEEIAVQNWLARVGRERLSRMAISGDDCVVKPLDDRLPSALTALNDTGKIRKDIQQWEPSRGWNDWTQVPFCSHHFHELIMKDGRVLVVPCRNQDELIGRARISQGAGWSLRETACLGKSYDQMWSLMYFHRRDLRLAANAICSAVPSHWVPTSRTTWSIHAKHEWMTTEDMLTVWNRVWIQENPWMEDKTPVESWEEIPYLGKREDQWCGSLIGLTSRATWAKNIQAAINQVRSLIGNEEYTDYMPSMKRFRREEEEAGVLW

[8] = biological target: T2, RNA-binding protein pos-1 (Caenorhabditis elegans, UniProt G5EF15); test: inhibitors of POS-1/mex-3 RNA binding, dose response, biochemical, fluorescence polarization (AID 1964);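 further: purified POS-1 fused to maltose binding protein made in E. coli; potency of compounds blocking POS-1 binding to fluorescent RNA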
T2 sequence (G5EF15 whole entry): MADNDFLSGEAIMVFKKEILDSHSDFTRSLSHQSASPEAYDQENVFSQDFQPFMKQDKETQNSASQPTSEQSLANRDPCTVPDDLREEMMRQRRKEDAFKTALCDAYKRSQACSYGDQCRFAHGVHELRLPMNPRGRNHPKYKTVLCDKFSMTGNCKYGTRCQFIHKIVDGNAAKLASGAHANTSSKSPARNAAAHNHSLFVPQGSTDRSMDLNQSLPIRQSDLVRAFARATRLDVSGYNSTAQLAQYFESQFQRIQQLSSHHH

[9] = biological target: Bifunctional protein GlmU (Mycobacterium tuberculosis, UniProt P9WMN3); test: Inhibitors of Mycobacterial Glucosamine-1-phosphate acetyl transferase (GlmU). Secondary screen.; parameters: species or system Mycobacterium tuberculosis H37Rv
Bifunctional protein GlmU, sequence (P9WMN3 whole entry): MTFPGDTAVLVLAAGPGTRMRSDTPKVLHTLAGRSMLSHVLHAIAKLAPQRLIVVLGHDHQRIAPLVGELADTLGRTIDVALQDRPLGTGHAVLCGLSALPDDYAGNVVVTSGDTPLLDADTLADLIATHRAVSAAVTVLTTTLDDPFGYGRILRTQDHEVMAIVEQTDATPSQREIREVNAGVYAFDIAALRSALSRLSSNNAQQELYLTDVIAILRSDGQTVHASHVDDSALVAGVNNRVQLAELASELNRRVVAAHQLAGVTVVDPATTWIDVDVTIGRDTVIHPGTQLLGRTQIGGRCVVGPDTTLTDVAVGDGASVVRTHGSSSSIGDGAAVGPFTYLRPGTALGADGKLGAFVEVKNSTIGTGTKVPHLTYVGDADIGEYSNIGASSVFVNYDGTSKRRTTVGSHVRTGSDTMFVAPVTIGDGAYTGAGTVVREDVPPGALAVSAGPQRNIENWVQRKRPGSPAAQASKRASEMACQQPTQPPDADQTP

[10] = Jurkat T cell cytotoxicity, dose response, cytotoxicity control for P. falciparum gametocyte viability project, luminescence (AID 1117277); type: functional, cell-based;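 further: potency reflects loss of cellular ATP meaning fewer viable cells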
[11] = P. falciparum late gametocyte killing, dose response, luminescence (AID 1117278); type: functional, cell-based;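 further: gametocytes exposed to compound for 24 hours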
[12] = biological target: T3, Polyadenylate-binding protein 1 (Homo sapiens, UniProt P11940); test: PABP1 MLLE–PAM2 interaction inhibitors, dose response, miRNA deadenylation inhibitor project, biochemical, fluorescence polarization, Cy5-PAM2 peptide, secondary (AID 602260); type: functional; settings: read-out: IC50_Mean
T3 sequence (P11940 whole entry): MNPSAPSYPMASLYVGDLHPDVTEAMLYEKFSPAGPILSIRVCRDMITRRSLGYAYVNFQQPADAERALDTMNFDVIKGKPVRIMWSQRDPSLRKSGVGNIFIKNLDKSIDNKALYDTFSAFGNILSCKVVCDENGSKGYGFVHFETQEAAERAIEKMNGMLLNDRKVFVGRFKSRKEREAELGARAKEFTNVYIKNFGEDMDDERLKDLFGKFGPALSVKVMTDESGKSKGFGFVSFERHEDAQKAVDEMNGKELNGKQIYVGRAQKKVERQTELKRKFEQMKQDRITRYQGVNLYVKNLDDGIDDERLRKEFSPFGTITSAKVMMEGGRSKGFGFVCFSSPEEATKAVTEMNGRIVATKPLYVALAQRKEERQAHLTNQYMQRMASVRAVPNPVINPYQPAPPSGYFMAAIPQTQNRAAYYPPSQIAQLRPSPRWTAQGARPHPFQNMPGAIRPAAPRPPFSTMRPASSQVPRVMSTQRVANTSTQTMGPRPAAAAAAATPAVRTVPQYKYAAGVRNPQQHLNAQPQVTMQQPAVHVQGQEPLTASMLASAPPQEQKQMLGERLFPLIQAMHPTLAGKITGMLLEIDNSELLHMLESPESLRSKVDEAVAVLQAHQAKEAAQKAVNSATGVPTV

[13] = biological target: T4, Microphthalmia-associated transcription factor (Homo sapiens, UniProt O75030); test: TRPM1 promoter luciferase signal decrease, dose response, MITF inhibitor project, cell-based, SK-MEL-5, cherry-picked, set 3 (AID 493073); type: functional
T4 sequence (O75030 whole entry): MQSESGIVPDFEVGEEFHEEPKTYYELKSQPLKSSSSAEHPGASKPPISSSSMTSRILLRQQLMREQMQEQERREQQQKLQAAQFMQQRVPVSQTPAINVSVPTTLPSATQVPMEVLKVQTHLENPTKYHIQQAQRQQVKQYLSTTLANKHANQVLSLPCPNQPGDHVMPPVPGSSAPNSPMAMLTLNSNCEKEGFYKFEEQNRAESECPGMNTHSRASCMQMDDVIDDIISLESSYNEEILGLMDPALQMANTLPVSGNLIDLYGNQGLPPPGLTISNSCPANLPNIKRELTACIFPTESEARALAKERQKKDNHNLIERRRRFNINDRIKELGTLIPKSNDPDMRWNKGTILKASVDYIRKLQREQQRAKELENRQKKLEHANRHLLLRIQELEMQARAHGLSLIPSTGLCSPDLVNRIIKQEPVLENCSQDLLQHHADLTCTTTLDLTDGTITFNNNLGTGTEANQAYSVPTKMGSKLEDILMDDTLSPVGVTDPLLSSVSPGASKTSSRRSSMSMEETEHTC

[14] = biological target: E3 ubiquitin-protein ligase Mdm2 (Homo sapiens, UniProt Q00987); test: enhancers of MDM2-luciferase reporter signal, concentration-effect titration, project on inhibitors of MDM2 ubiquitin ligase, cellular assay, luminescent readout, 384-well plate format (AID 1394); type: functional;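 further: MDM2 E3 inhibitors raise luminescence so EC50 is for signal enhancement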
E3 ubiquitin-protein ligase Mdm2, sequence (Q00987 whole entry): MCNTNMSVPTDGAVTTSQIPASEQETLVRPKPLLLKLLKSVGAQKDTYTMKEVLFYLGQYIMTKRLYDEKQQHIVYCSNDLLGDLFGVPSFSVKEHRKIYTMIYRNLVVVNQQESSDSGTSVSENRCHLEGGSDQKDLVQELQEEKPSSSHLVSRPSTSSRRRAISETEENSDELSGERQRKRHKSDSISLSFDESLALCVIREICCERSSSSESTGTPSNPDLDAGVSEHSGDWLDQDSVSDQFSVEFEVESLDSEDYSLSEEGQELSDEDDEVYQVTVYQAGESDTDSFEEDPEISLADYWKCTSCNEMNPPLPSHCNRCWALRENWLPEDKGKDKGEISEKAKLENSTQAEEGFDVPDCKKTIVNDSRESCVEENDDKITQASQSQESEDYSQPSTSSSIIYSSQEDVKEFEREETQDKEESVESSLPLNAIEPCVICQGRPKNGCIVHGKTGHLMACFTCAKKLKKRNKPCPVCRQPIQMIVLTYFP

[15] = biological target: T3, Polyadenylate-binding protein 1; test: PABP1 MLLE–PAM2 binding inhibitor potency, dose response, biochemical, fluorescence polarization, FITC-PAM2 peptide (AID 602259); type: functional; settings: read-out: IC50_Mean
[16] = cytotoxicity toward NIH3T3 fibroblasts, dose response, counter-screen, cell-based, ATP luminescence, mouse fibroblasts (AID 2010); type: functional;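 further: cells exposed to compound for about 90 hours before reading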
[17] = inhibitors of intracellular T. cruzi replication, confirmation, NIH3T3 host cells, beta-gal luminescence (AID 2044); type: functional, cell-based;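 further: intracellular parasites grown in NIH/3T3 mouse fibroblasts as host cells; luminescent beta-galactosidase reporter signal from transgenic T. cruzi replicating inside host cells; inhibitors lower the luminescence signal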
[18] = cells
[19] = biological target: Protein Tat (Human immunodeficiency virus type 1 group M subtype B (isolate HXB2)(HIV-1), UniProt P04608); type: functional;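 further: tat binding to TAR RNA read out by fluorescence polarization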
Protein Tat, sequence (P04608 whole entry): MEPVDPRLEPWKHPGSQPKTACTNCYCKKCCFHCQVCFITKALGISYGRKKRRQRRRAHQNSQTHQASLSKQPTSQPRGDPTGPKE

[20] = biological target: Large T antigen (Simian virus 40, UniProt P03070); type: functional, Betapolyomavirus macacae;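 further: Confirmatory-stage PubChem screen for compounds that inhibit SV40 T antigen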
Large T antigen, sequence (P03070 whole entry): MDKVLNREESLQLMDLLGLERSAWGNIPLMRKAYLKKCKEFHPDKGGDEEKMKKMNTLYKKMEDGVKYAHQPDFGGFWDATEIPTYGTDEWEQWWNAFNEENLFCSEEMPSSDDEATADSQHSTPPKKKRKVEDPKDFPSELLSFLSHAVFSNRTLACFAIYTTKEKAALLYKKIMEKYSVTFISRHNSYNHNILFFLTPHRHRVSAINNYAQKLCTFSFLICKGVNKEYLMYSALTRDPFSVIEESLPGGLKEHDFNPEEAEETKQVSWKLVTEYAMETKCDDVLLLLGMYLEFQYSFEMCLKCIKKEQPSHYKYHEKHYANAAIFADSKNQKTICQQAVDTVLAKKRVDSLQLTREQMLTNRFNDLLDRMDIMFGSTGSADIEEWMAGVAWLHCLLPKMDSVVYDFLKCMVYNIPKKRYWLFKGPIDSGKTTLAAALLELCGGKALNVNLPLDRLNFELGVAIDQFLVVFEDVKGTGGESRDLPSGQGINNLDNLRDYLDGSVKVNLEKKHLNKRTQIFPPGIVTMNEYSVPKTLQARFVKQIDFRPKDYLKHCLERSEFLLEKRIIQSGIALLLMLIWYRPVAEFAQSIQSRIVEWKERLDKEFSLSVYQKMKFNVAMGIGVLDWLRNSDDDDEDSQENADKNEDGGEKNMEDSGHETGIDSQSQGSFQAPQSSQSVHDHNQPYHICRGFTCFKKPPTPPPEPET

[21] = biological target: T5, Estrogen receptor (Homo sapiens, UniProt P03372);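 further: potency for inhibiting coactivator peptide recruitment to the receptor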
T5 sequence (P03372 whole entry): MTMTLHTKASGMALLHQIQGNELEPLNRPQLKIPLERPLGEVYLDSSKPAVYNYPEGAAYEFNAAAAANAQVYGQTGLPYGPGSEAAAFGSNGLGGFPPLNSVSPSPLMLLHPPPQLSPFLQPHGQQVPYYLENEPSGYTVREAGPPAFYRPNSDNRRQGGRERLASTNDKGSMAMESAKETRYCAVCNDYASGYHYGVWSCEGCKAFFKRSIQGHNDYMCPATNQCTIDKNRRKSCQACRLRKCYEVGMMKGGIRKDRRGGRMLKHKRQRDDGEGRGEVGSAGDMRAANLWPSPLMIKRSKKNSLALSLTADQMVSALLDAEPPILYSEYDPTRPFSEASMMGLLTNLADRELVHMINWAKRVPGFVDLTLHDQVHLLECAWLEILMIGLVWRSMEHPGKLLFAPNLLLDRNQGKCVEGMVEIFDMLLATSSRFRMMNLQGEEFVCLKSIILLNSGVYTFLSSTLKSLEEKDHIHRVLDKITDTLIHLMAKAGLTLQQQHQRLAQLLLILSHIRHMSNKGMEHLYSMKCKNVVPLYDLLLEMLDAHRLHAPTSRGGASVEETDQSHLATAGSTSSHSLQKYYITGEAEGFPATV

[22] = HEp-2 cell cytotoxicity, dose response, cytotoxicity control for RSV inhibitor project, HTS (AID 2410); type: functional; settings: human respiratory syncytial virus
[23] = biological target: Cytochrome P450 3A4 (Homo sapiens, UniProt P08684);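 further: CYP3A4 tested as one member of a cytochrome P450 panel screen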
Cytochrome P450 3A4, sequence (P08684 whole entry): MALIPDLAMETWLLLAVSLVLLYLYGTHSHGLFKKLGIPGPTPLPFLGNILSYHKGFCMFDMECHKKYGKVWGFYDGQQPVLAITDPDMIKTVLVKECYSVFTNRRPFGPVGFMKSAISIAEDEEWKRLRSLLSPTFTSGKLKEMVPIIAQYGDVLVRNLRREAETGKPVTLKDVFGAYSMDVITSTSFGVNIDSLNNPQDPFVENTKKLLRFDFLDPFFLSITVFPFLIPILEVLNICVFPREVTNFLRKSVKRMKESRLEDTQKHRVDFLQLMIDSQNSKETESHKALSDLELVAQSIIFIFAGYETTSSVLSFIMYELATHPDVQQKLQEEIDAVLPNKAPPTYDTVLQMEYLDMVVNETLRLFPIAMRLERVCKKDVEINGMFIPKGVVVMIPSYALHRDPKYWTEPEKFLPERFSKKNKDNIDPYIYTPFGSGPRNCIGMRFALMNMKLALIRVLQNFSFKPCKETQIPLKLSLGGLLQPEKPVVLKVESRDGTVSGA

[24] = inhibitors of Vif binding to APOBEC3G peptide, primary screen, biochemical, TR-FRET, GST-Vif 1-94, biotin-A3G peptide, dose response retest (AID 1117319); type: functional;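 further: TR-FRET signal of purified GST-Vif binding a biotinylated A3G peptide; inhibitors lower the FRET signal by blocking Vif and A3G binding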
[25] = biological target: Cytochrome P450 2D6 (Homo sapiens, UniProt P10635);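 further: CYP2D6 member of a cytochrome P450 panel assay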
Cytochrome P450 2D6, sequence (P10635 whole entry): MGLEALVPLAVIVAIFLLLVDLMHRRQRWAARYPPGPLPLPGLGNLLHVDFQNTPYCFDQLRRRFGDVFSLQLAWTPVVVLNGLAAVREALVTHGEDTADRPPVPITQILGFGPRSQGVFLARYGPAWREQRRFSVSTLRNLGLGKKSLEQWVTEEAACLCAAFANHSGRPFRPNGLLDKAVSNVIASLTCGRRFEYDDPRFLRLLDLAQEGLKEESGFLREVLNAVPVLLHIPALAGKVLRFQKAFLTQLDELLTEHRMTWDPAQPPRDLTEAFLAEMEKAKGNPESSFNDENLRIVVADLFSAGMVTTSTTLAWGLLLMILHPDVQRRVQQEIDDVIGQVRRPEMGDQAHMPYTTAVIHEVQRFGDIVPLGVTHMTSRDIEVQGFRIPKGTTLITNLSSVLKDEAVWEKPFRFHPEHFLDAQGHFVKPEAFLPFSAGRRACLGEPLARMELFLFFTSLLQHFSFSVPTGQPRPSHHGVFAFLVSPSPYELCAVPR

[26] = cytotoxicity toward Colo320 cells – cell-based, CellTiter-Glo luminescence, IC50, dose response (AID 1117334); type: functional; settings: COLO 320
[27] = SNU-C1 cell viability reduction, dose response, CellTiter-Glo luminescence (AID 1117323); type: functional, cell-based
[28] = cytotoxicity toward HT-29 cells – cell-based, CellTiter-Glo luminescence, IC50, dose response (AID 1117330); type: functional
[29] = half-maximal inhibitory concentration for glucagon-like peptide-1 release, STC-1 cell line, dose-response (AID 1117345); type: functional, cell-based
[30] = Glucagon-like peptide 1 release potency, NCI-H716 cell line, dose-response, half-maximal inhibitory concentration (AID 1117344); type: functional, cell-based
[31] = cytotoxicity toward HCT116 cells – cell-based, CellTiter-Glo luminescence, IC50, dose response (AID 1117332); type: functional; settings: HCT-116
[32] = CellTiter-Glo luminescent dose response of DLD-1 viability loss (AID 1117352); type: functional
[33] = Concentration-dependent survival of SW480 colon cancer line, luminescence detection with CellTiter-Glo, half-maximal inhibitory concentration (AID 1117338); type: functional
[34] = HeLa 4N DNA content increase, dose response, cell-based, IC50 (AID 1117351); type: functional
[35] = RKO cell viability reduction, dose response, CellTiter-Glo luminescence (AID 1117322); type: functional
[36] = HCT116 cell viability decrease, GSK3B pretreatment – CellTiter-Glo, IC50, dose response (AID 1117339); type: functional; settings: HCT-116
[37] = HeLa 2N DNA content increase, dose response, cell-based, IC50 (AID 1117349); type: functional

Compound: COc1ccc(Cl)c2c3n[nH]c(SCc4ccccn4)nc-3nc12
- EC50 [1]: 0.391 µM (active)
- EC50 [2]: < 0.1 µM (active)
- EC50 [3]: 25.2 µM (active)
- EC50 [4]: 0.249 µM (active)
- EC50 [5]: 0.287 µM (active)

Compound: COc1ccc(N2C(=O)C(Cl)=C(Nc3ccccc3O)C2=O)cc1
- EC50 [6]: 24.5 µM (active)
- IC50 [7]: 78 µM (active)
- EC50 [8]: > 300 µM (not active)
- IC50 [9]: 53.6 µM (active)

Compound: O=C(Cc1ccc(-c2ccccc2)cc1)NC(c1ccccc1)c1ccccc1
- IC50 [10]: > 83.3 µM (inactive)
- IC50 [11]: > 109 µM (inactive)

Compound: O=C(COC(=O)Cc1ccc(F)cc1)NCc1ccco1
- IC50 [10]: > 83.2 µM (inactive)
- IC50 [11]: > 109 µM (inactive)

Compound: COC(=O)CSC1=C(C#N)C(=O)NC(c2ccccc2)S1 (centres undefined)
- IC50 [12]: > 66 µM (inactive)
- AC50 [13]: 7.06 µM (active)
- EC50 [14]: 2.15 µM (active)
- IC50 [15]: > 66 µM (inactive)

Compound: CCc1sc(C(=O)NC2CCN(C)CC2)cc1Br
- EC50 [16]: > 60 µM (not active)
- EC50 [17]: < 0.1 µM (active)
- EC50 [18]: 0.026 µM (active)

Compound: NC(=O)c1ccc(N2CCN(c3ccc(O)cc3)CC2)c([N+](=O)[O-])c1
- IC50 [19]: > 100 µM (active)
- IC50 [20]: 8.31 µM (active)

Compound: CN1CCN(c2nc(-c3ccc(Br)cc3)nnc2-c2ccccc2)CC1
- EC50 [16]: > 60 µM (inconclusive)
- EC50 [17]: < 0.1 µM (active)
- EC50 [18]: 0.008 µM (active)

Compound: CC(=O)c1cccc(NC(=O)CN2C(=O)NC3(CCCCCCC3)C2=O)c1
- IC50 [19]: > 100 µM (active)
- IC50 [21]: 48.2 µM (not active)

Compound: CCCSc1nnc(NC(=O)c2sc3nc(-c4cccs4)ccc3c2N)s1
- CC50 [22]: 46 µM (active)
- IC50 [9]: 167 µM (active)

Compound: O=C(N/N=C/c1ccc(F)cc1)c1ccc(Br)cc1
- AC50 [23]: 22.4 µM (inconclusive)
- IC50 [24]: > 50 µM (active)
- AC50 [25]: 3.55 µM (inconclusive)

Compound: CCN(CC)CCOc1ccc(C(O)(Cc2ccc(Cl)cc2)c2ccc(C)cc2)cc1 (centres undefined) [TRIPARANOL]
- IC50 [26]: 8.99 µM (inactive)
- IC50 [27]: 2.46 µM (active)
- IC50 [28]: 3.17 µM (active)
- IC50 [29]: > 40 µM (inactive)
- IC50 [30]: 36.1 µM (inactive)
- IC50 [31]: > 20 µM (inactive)
- IC50 [32]: > 20 µM (inactive)
- IC50 [33]: 3.76 µM (active)
- IC50 [34]: > 10 µM (inactive)
- IC50 [35]: 0.299 µM (active)
- IC50 [36]: 3.74 µM (active)
- IC50 [37]: > 10 µM (inactive)
